Experimental data: US9745299B2, “Substituted tricyclic benzimidazoles as kinase inhibitors” (SELVITA SA, priority 2012, dated 2017)

Legend:
SW480 cells = test: MTS viability assay, SW480; assay type: cell-based; conditions: Homo sapiens, SW480, 72 hour incubation, read-out: IC50 [μM] SW-480 ED50
Text: (§1) The viability of CDK8 expressing cells can be evaluated using a tetrazolium salt reduction cell-based assay. In viable cells this colorimetric assay can measure mitochondrial reduction of a tetrazolium component (MTS) into an […] formazan product. For MTS viability assay, human colon cancer cell lines were used (SW480 and HCT116 cell lines), containing elevated levels of CDK8 protein and highly dependent on its expression for proliferation [see, Firenstein et al. Nature 455 (25):547-551, (2008)]. These cell lines were used to determine the activity of the compounds provided herein to inhibit CDK8 in intact cells. Human tumor cell lines were obtained from ATCC (Rockville Md. USA). In each case, and by methods known to those practiced in the art of cell culture, vaiability was measured after 72 hour incubation with the compounds provided herein using a standard MTS protocol (CellTiter 96® AQueous Non-Radioactive Cell Proliferation Assay).
(§2) Briefly, cells were plated at 10,000-20,000 cells per well in DMEM medium supplemented with 10% fetal bovine serum. The compound plate was set up by aliquoting into column 1 of a 96-well plate, the negative control (DMSO), aliquoting into column 12 the positive control, and titrating the test compound in serial dilutions into columns 2-11. An aliquot from each well of the compound plate was transferred to the plated cells and then incubated at 37° C. in 5% CO2. 20 μL of MTS tetrazolium was added to each well of optical plate and the cells were incubated at 37° C. in 5% CO2 for 2 hours. The absorbance was measured at 490 nm using a microplate reader.

CDK9/CyclinT = biological target: T1, CDK9/CyclinT (Homo sapiens, UniProt P50750); test: ADP-Glo Kinase Assay, CDK9/CyclinT; assay type: biochemical; conditions: read-out: % inhibition at 1 μM CDK9/CyclinT; further: ATP at apparent Km (26 µM)
T1 construct: purchased Proqinase, Freiburg, Germany
Protocol: (§3) Testing of the compounds described in this invention was carried out using the ADP-Glo™ Kinase Assay from Promega Corporation (Madison, Wis., USA).
(§4) The ADP-Glo™ Kinase Assay is a luminescent ADP detection assay to measure kinase activity by quantifying the amount of ADP produced during a kinase reaction. The kinase assay is performed in kinase assay buffer (5 mM MOPS, pH 7.5, 5 mM MgCl2, 0.4 mM EDTA, 1.5 mM DTT). Test samples initially dissolved in DMSO at 10 mM were diluted with the assay buffer to 1000 nM. A 30 μL volume/well of a mixture of substrates containing ATP (final ATP concentration in each kinase assay was equal to its apparent ATP Km).
(§5) The assay was performed in two steps: first, after the kinase reaction, an equal volume of ADP-Glo™ Reagent was added to terminate the kinase reaction and deplete the remaining ATP. Second, the Kinase Detection Reagent was added to simultaneously convert ADP to ATP and allowed the newly synthesized ATP to be measured using a luciferase/luciferin reaction. The luminescent signal generated was proportional to the ADP concentration produced and was correlated with kinase activity.

CDK8/CyclinC = biological target: T2, CDK8/CyclinC (Homo sapiens, UniProt P49336); test: ADP-Glo Kinase Assay, CDK8/CyclinC; assay type: biochemical; conditions: read-out: % inhibition at 1 μM CDK8/CyclinC; further: ATP at apparent Km (53 µM)
T2 construct: purchased ProQinase, Freiburg, Germany
Protocol: as §3, §4, §5

HCT116 cells = test: MTS viability assay, HCT116; assay type: cell-based; conditions: Homo sapiens, HCT-116, HCT116, 72 hour incubation, read-out: IC50 [μM] HCT116 ED50
Text: as §1, §2

CDK2/CyclinE = biological target: T3, CDK2/CyclinE (Homo sapiens, UniProt P24941); test: ADP-Glo Kinase Assay, CDK2/CyclinE; assay type: biochemical; conditions: read-out: % inhibition at 1 μM CDK2/CyclinE
T3 construct: purchased Millipore, Billerica, Mass., USA
Protocol: as §3, §4, §5

T2 sequence (P49336 whole entry): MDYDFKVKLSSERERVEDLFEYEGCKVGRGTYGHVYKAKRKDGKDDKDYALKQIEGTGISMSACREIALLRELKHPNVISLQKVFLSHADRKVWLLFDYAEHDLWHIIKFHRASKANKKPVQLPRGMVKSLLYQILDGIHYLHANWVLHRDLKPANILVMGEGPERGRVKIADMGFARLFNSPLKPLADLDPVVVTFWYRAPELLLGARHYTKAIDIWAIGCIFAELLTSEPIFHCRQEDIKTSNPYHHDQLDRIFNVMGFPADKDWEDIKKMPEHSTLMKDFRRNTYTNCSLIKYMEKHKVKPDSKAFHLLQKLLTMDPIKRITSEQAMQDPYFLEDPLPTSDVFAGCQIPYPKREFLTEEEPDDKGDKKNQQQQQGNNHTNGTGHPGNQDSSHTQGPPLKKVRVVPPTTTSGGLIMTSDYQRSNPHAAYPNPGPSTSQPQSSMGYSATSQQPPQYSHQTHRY
T2 sequence (P24863 whole entry partner): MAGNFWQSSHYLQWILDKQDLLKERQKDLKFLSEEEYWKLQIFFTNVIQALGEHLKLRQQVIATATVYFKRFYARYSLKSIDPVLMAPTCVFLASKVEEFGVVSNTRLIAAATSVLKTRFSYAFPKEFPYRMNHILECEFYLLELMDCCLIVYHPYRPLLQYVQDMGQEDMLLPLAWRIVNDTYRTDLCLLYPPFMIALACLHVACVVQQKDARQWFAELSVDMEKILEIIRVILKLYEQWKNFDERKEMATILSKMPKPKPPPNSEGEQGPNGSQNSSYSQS
T1 sequence (P50750 whole entry): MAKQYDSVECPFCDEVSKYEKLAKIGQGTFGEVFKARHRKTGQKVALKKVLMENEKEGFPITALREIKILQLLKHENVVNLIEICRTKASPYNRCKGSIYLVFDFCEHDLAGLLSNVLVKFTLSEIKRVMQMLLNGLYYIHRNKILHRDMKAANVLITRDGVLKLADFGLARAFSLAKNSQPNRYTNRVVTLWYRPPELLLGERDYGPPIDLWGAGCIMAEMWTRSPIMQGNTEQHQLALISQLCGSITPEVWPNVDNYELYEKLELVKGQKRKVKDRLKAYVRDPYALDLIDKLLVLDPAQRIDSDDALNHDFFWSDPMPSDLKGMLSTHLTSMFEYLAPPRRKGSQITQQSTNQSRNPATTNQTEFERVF
T1 sequence (O60563 whole entry partner): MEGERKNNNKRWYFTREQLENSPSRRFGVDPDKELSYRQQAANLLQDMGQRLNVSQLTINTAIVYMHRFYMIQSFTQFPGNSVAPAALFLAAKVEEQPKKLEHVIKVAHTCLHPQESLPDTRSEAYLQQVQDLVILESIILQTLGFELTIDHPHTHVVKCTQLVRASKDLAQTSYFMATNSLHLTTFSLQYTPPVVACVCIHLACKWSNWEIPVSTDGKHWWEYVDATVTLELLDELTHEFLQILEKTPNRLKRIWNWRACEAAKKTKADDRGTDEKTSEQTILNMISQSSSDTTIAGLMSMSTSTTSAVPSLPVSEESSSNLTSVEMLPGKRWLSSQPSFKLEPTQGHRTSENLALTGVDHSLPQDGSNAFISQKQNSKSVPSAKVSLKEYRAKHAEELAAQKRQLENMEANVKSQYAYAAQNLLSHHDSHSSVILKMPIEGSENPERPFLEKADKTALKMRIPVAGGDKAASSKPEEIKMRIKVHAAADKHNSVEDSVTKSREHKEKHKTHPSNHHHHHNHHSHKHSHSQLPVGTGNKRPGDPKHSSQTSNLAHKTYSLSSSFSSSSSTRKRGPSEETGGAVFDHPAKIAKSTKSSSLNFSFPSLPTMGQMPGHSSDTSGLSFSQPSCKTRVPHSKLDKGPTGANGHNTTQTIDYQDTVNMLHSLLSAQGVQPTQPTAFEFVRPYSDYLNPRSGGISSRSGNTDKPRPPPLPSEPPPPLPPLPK

IC50 (SW480 cells) [µM] | inhibition at 1 µM (CDK9/CyclinT) [%] | inhibition at 1 µM (CDK8/CyclinC) [%] | IC50 (HCT116 cells) [µM] | inhibition at 1 µM (CDK2/CyclinE) [%] | Structure (SMILES)
1.3 | 21 | 96 | 0.4 | 20 | C[C@H]1CN(c2nc3c(Br)c(Br)c(Br)c4c3n2CCC4)CCN1 [Example 3AA]
1.4 | 47 | 84 | 0.4 | 27 | C[C@@H]1CN(c2nc3c(Br)c(Br)c(Br)c4c3n2CCC4)CCN1 [Example 3AB]
– | 26 | 94 | – | 12 | O[C@@H]1CCN(c2nc3c(Br)c(Br)c(Br)c4c3n2CCC4)C1 [Example 3AC]
– | 0 | 76 | – | 0 | Cc1c(Br)c(Br)c2c3c1nc(N1CCNC(C)C1)n3CCC2 (stereo not drawn) [Example 3AH]
– | -9 | 75 | – | 0 | Cc1c(Br)c(Br)c2c3c1nc(N1CCN(C)CC1)n3CCC2 [Example 3AK]
– | 18 | 76 | – | – | CN(C)C1CCN(c2nc3c(Br)c(Br)c(Br)c4c3n2CCC4)C1 (stereo not drawn) [Example 3AL]
– | 21 | 85 | – | 4 | O[C@H]1CCN(c2nc3c(Br)c(Br)c(Br)c4c3n2CCC4)C1 [Example 3AN]
– | 22 | 93 | – | 16 | OC1CCN(c2nc3c(I)c(Br)c(Br)c4c3n2CCC4)CC1 [Example 3AO]
– | 9 | 81 | – | – | CCN(CC)c1nc2c(C)c(Br)c(Br)c3c2n1CCC3 [Example 3AP]
– | – | 75 | – | – | Cc1c(Br)c(Br)c2c3c1nc(N1CCSCC1)n3CCC2 [Example 3AR]
– | – | 82 | – | – | Cc1c(Br)c(Br)c2c3c1nc(N1CCN[C@H](C)C1)n3CCC2 [Example 3AT]
– | – | 76 | – | – | Cc1c(Br)c(Br)c2c3c1nc(N1CCOCC1)n3CCC2 [Example 3AU]
– | – | 45 | – | – | Brc1c(Br)c2c3c(nc(Nc4ccncc4)n3CCC2)c1Br [Example 3B]
– | – | 59 | – | – | Brc1c(Br)c2c3c(nc(Nc4ccccc4)n3CCC2)c1Br [Example 3C]
– | 3 | 64 | – | 3 | Brc1c(Br)c2c3c(nc(NC4CCCCC4)n3CCC2)c1Br [Example 3E]
– | – | 67 | – | – | OCCCNc1nc2c(Br)c(Br)c(Br)c3c2n1CCC3 [Example 3F]
– | – | 80 | – | – | Brc1c(Br)c2c3c(nc(N4CCOCC4)n3CCC2)c1Br [Example 3G]
– | – | – | 2.2 | – | CN(C)CCNc1nc2c(Br)c(Br)c(Br)c3c2n1CCC3 [Example 3K]
– | 6 | 54 | – | – | Brc1c(Br)c2c3c(nc(NCCCN4CCCC4)n3CCC2)c1Br [Example 3L]
– | 18 | 58 | – | – | CC1(C)CN(c2nc3c(Br)c(Br)c(Br)c4c3n2CCC4)CCN1 [Example 3N]
– | 16 | 89 | – | 7 | CC1CCCN1c1nc2c(I)c(Br)c(Br)c3c2n1CCC3 (stereo not drawn) [Example 3S]
– | 24 | 92 | – | 9 | OCC1CCCN(c2nc3c(Br)c(Br)c(Br)c4c3n2CCC4)C1 (stereo not drawn) [Example 3U]
– | 41 | 92 | – | 9 | CCN(CC)c1nc2c(I)c(Br)c(Br)c3c2n1CCC3 [Example 3X]
– | 17 | 69 | – | 21 | Nc1nc2c(I)c(Br)c(Br)c3c2n1CCC3 [Example 3Y]
– | 0 | 75 | – | 8 | COC1CCN(c2nc3c(Br)c(Br)c(Br)c4c3n2CCC4)CC1 [Example 4A, 7,8,9-tribromo-2-(4-methoxypiperidin-1-yl)-5,6-dihydro-4H-imidazo[4,5,1-ij]quinoline]
– | – | 66 | – | – | Cc1c(Br)c(Br)c2c3c1nc(C1CCN(C(C)C)CC1)n3CCC2 [Example 7D]

Continued, compound first:

Structure (SMILES) | IC50 (SW480 cells) [µM] | inhibition at 1 µM (CDK9/CyclinT) [%] | inhibition at 1 µM (CDK8/CyclinC) [%] | IC50 (HCT116 cells) [µM] | inhibition at 1 µM (CDK2/CyclinE) [%]
N[C@@H]1CCN(c2nc3c(Br)c(Br)c(Br)c4c3n2CCC4)C1 [Example 1AE] | 1.1 | 61 | 97 | 0.3 | 44
NCC1CN(c2nc3c(Br)c(Br)c(Br)c4c3n2CCC4)CCO1 (stereo not drawn) [Example 1AF] | 1.8 | – | – | 1.3 | –
NC1CCN(c2nc3c(Br)c(Br)c(Br)c4c3n2CCC4)CC1 [Example 1AG] | 0.5 | 42 | 82 | 1.3 | 33
Cc1c(Br)c(Br)c2c3c1nc(N1CC[C@@H](N)C1)n3CCC2 [Example 1AK] | 1.8 | 2 | 93 | 1.7 | 0
Cc1c(Br)c(Br)c2c3c1nc(N[C@H]1CCNC1)n3CCC2 [Example 1AL] | 1.8 | – | – | 5.3 | –
COc1c(Br)c2c3c(nc(N4CCNCC4)n3CCC2)c1Br [Example 1AN] | – | 10 | 61 | 2.4 | –
Cc1c(Br)c(Br)c2c3c1nc(N1CCC(N)CC1)n3CCC2 [Example 1AP] | – | 15 | 65 | – | –
CC1CCc2c(Br)c(Br)c(Br)c3nc(N4CCNCC4)n1c23 (stereo not drawn) [Example 1AU] | 1.1 | 12 | 90 | 0.2 | –
Brc1c(Br)c2c3c(nc(N[C@H]4CCCNC4)n3CCC2)c1Br [Example 1AW] | – | 41 | 57 | – | 0
Cc1c(Br)c(Br)c2c3c1nc(N1CCCNCC1)n3CCC2 [Example 1AZ] | – | – | 61 | 1.6 | –
N[C@@H]1CCCC[C@H]1Nc1nc2c(Br)c(Br)c(Br)c3c2n1CCC3 [Example 1B] | 0.5 | – | – | 1.3 | –
CC1CNCCN1c1nc2c(Br)c(Br)c(Br)c3c2n1CCC3 (stereo not drawn) [Example 1E] | 2.7 | 20 | 89 | 1.9 | 2
N[C@H]1CCN(c2nc3c(Br)c(Br)c(Br)c4c3n2CCC4)C1 [Example 1G] | 1.1 | 45 | 96 | 0.7 | 29
NCC1CCCN1c1nc2c(Br)c(Br)c(Br)c3c2n1CCC3 (stereo not drawn) [Example 1H] | – | 8 | 67 | – | 0
NC1CCCN(c2nc3c(Br)c(Br)c(Br)c4c3n2CCC4)C1 (stereo not drawn) [Example 1I] | – | – | – | 1.5 | –
Brc1c(Br)c2c3c(nc(NC4CCNCC4)n3CCC2)c1Br [Example 1J] | – | – | – | 0.5 | –
Brc1c(Br)c2c3c(nc(NC4CCNC4)n3CCC2)c1Br (stereo not drawn) [Example 1L] | 1.4 | 9 | 81 | 1.1 | 19
NC1CCCN(c2nc3c(Br)c(Br)c(Br)c4c3n2CCC4)CC1 (stereo not drawn) [Example 1M] | 1.5 | 0 | 59 | 1.1 | 6
Brc1cc2nc(N3CCNCC3)n3c2c(c1Br)CCC3 [Example 1N] | – | – | 49 | 4.3 | –
Cc1c(Br)c(Br)c2c3c1nc(NCCN)n3CCC2 [Example 1O] | – | – | – | 1.3 | –
Cc1c(Br)c2c3c(nc(NCCN)n3CCC2)c1Br [Example 1P] | – | – | – | 1.4 | –
Cc1c(Br)c(Br)c2nc(N3CCNCC3)n3c2c1CCC3 [Example 1S] | 2.5 | 4 | 54 | 1.7 | –
NCCNc1nc2c([N+](=O)[O-])c(Br)c(Br)c3c2n1CCC3 [Example 1U] | – | – | – | 1.6 | –
